Measured values taken from patent US20240262812A1, “N-SUBSTITUTED PHENYLSULFONAMIDE COMPOUND AND USE THEREOF” (Shanghai Leado Pharmatech Co., Ltd., priority 2021, published 2024).

Experiments:
mTRPA1 = biological target: T1, mTRPA1 (Mus musculus, UniProt Q8BLA8); test: IonWorks Barracuda (IWB) automated patch clamp, TRPA1 inhibitory activity; assay type: cell-based; conditions: HEK293 cells stably expressing mTRPA1, current induced by AITC, amplitude at +100 mV; read-out: IC50 (inhibition activity on TRPA1)
T1 construct: expressed in transfected cells
T1 sequence (Q8BLA8 whole entry): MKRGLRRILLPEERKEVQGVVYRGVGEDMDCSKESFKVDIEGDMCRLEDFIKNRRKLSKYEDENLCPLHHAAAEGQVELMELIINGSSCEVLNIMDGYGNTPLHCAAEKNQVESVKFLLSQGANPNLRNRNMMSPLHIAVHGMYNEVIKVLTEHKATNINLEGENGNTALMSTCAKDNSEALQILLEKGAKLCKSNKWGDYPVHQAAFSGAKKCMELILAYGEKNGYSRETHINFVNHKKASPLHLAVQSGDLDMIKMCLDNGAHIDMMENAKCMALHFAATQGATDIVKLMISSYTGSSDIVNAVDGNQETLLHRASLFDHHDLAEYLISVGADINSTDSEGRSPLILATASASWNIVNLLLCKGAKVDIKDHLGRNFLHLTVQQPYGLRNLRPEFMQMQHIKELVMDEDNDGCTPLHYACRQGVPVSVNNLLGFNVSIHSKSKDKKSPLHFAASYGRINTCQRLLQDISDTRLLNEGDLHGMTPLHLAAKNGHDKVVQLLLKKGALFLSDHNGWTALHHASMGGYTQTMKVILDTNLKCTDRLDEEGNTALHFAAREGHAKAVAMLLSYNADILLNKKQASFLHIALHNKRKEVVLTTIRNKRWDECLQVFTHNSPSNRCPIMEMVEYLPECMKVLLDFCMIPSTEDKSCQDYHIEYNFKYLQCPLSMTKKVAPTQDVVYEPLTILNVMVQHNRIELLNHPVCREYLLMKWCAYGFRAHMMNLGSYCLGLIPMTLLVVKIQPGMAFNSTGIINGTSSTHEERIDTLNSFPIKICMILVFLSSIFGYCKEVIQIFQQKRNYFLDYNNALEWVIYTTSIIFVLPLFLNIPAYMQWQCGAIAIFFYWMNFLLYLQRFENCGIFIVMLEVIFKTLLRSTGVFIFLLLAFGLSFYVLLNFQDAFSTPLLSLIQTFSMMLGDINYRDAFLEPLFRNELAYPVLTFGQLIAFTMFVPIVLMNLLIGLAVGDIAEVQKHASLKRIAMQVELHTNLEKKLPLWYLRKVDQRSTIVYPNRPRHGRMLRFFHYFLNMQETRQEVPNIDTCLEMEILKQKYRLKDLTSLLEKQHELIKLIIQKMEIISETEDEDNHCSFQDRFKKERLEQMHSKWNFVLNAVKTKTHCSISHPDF
Outline: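 HEK293 cells stably expressing mouse TRPA1, perforated-patch whole-cell recording (amphotericin B) on IonWorks Barracuda; holding 0 mV, −100 to +100 mV ramp over 300 ms every 10 s. Current evoked by 300 µM AITC, leak-subtracted, amplitude taken at +100 mV; IC50 from fitted dose-effect curves, HC030031 as plate reference.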

[1] = system: DNBS induced colitis in Wistar rats; test: DNBS induced colitis model in Wistar rats; assay type: in vivo, rat; set-up: Degree of adhesion (score) / Degree of intestinal infarction (score) / Severity of ulcer (score) / Degree of intestinal wall thickening (score) / Macroscopic colon score: scale not given here; conditions: oral once a day Day 0 to Day 6, compounds 10 mg/kg, osalazine sodium 300 mg/kg; for Degree of adhesion (score) / Degree of intestinal infarction (score) / Degree of intestinal wall thickening (score) / Severity of ulcer (score): mean score per Table 4; for Ulcer length / Ulcer width: mean
Text: The therapeutic effect of compounds prepared in some examples of the present invention on 2,4-dinitrobenzenesulfonic acid (DNBS) induced ulcerative colitis in Wistar rats (corresponding to Crohn's disease) was investigated.
• Animal species and strains: Wistar rats • Administration record: No administration history • Gender and weight: Male, about 150 g • Breeding party/supplier: Shanghai SLAC Laboratory Animal Co., Ltd • Adaptation period: 5 days • Room: Regular Area Rooms • Indoor temperature: 20-26° C. • Indoor relative humidity: 40-70% • Lighting: Fluorescent lighting, 12-hour illumination (08:00-20:00) and 12-hour no illumination • Animal feeding: 2-4 rats per cage (same administration group) • Food: Unlimited access to feed (disinfected by irradiation, Jiangsu Xietong Pharmaceutical Bio-engineering Co., Ltd., China) • Water: Unlimited access to drinking water (treated with reverse osmosis and high-pressure sterilization)
A total of 80 Wistar rats were purchased from Shanghai SLAC Laboratory Animal Co., Ltd, of which 10 were used as backup animals to select animals with suitable weight range included in the groups, in order to control the fluctuation of disease severity caused by weight fluctuations.
BioBook software was used to screen 70 animals for random grouping based on animal weight to ensure that the weight values of each group of animals were similar to reduce bias.
3.1 DNBS powder was dissolved in 30% ethanol with a final concentration of 60 mg/mL.
3.2 Induction of colorectal inflammation: Before the experiment, rats were fasted for 40 hours and subcutaneously injected with 5% glucose saline during the fasting period. On the day 0 of the experiment, fasting rats were anesthetized by intraperitoneal injection of Zoletil and 5 mg/kg Xylazine. G2 group-G7 group, a hose was extended from the anus to the left curvature of the colorectum, and colorectal inflammation in rats was induced with DNBS enema. The normal control group (G1) was treated with 30% ethanol enema using the same method.
3.3. Dosage regimen: After DNBS induction in G1 and G2 groups of animals, solvent was administered. After DNBS induction in G3 group, 300 mg/kg of oxalazine sodium was administered. After DNBS induction in G4 to G7 groups, 10 mg/kg of the compounds of the present invention were administered respectively. Please refer to Table 3 for the administration time, specific administration dosage, and administration route. Starting from day 0 of modeling, the drugs were administered continuously for 7 days, and the animals were euthanized on day 6.
3.4 Testing indicators: After the experiment, all animals were euthanized by inhaling excessive CO2 and dislocation of cervical vertebra. After the abdominal cavity was cut open, the colorectum was taken out and the length of it was immediately measured. Then the colorectum was longitudinally cut open and rinsed clean. The weight of the colorectum and the area of the ulcer were recorded and the whole was photographed. At the same time, the damage to the rat colorectum was evaluated macroscopically according to Table 4.
The health status of animals and their comprehensive response to surgery and medication were observed every day.
The experimental data was calculated as mean±standard error. Statistical analysis was performed using Graphpad Prism, SPSS, or Sigmaplot software. The specific data is presented in the form of charts. P<0.05 is considered to have statistical differences.

Structure (SMILES)	IC50 (mTRPA1) [nM]	Degree of adhesion (score) [1]	Degree of intestinal infarction (score) [1]	Degree of intestinal wall thickening (score) [1]	Severity of ulcer (score) [1]	Ulcer length [1] [cm]	Ulcer width [1] [cm]
CNCc1ccc(NS(=O)(=O)c2ccsc2)c(-c2ccco2)c1 [IA-30]	< 1000	0.00	0.00	0.13	0.80	0.33	0.19
CNCc1ccc(-c2nccs2)c(NS(=O)(=O)c2ccccc2)c1 [IA-51, N-(5-((methylamino)methyl)-2-(thiazol-2-yl)phenyl)benzenesulfonamide]	< 1000	0.07	0.00	0.27	0.60	0.31	0.20
CNCc1ccc(-c2cc[nH]n2)c(NS(=O)(=O)c2ccccc2)c1 [IA-55, N-(5-((methylamino)methyl)-2-(1H-pyrazol-3-yl)phenyl)benzenesulfonamide]	< 1000	0.10	0.10	0.30	1.20	0.60	0.40
NCc1ccc(NS(=O)(=O)c2ccsc2)c(-c2ccco2)c1 [ID-5]	< 1000	0.00	0.00	0.10	0.70	0.34	0.12
